This is an account of results in ChEMBL document CHEMBL1208764, “Morroniside cinnamic acid conjugate as an anti-inflammatory agent” (Bioorg Med Chem Lett, 2010).

For data set [1], the system named is HUVEC. Briefly: Cytotoxicity against HUVEC assessed as LDH release at 10-1000 ug/ml after 2 hrs. Format: cell-based. Particulars: human. (In general: LDH leaks from cells whose membrane has failed.)
Data set [2] deals with HUVEC. Briefly: Antiinflammatory activity in HUVEC assessed as inhibition of TNF-alpha-induced E-selection expression at 10-1000 ug/ml after 2 hrs by ELISA. Format: functional, cell-based. Particulars: Homo sapiens. On the technique in general: An ELISA detects its analyte on a solid surface through an enzyme-linked reagent.
The test system of data set [3] is HUVEC. In words: Antiinflammatory activity in HUVEC assessed as inhibition of TNF-alpha-induced E-selection expression after 2 hrs by ELISA. The settings on record: Homo sapiens. Format: functional, cell-based.

The source made the active and inactive calls. The rule behind the calls is not given here.

In the case of `COC(=O)C1=CO[C@@H](O[C@@H]2O[C@H](CO)[C@@H](O)[C@H](O)[C@H]2O)[C@@H]2[C@H](C)O[C@@H](OC)C[C@H]12`, in the data set with HUVEC [1], the Activity result was “Non-toxic”. In the data set with HUVEC [2], the inhibition entry was “inactive”.
As a reminder, the IC50 is the point on the concentration scale where inhibition reaches its midpoint. For the compound `C[C@]1(OC(=O)/C=C/c2ccccc2)C[C@@H](O)[C@]2(O)C=CO[C@@H](O[C@@H]3O[C@H](CO)[C@@H](O)[C@H](O)[C@H]3O)[C@@H]21` [HARPAGOSIDE], in the data set on HUVEC [3], the IC50 is 88.2 µM.
As to `COC(=O)C1=CO[C@@H](O[C@@H]2O[C@H](CO)[C@@H](O)[C@H](O)[C@H]2O)[C@@H]2[C@H](C)O[C@@H](O)C[C@H]12` [MORRONISIDE], the Activity entry in the data set on HUVEC [1] is recorded as “Non-toxic”. In addition, in the data set with HUVEC [2], the inhibition result is “inactive”.
